SMILES strings stand for the structures. In brackets after ≈: the same amount, converted by molar mass.

This series can be described thus: Solubility in acidic water (pH 1.2) at 37° C. (Test Example 1). Format: physicochemical. The conditions noted are these: acidic water (pH 1.2) containing HCl, simulated gastric fluid, thermodynamic from solid, acidic water (pH 1.2) containing about 1N HCl, stirred 2 hours, filtered through 1 μm membrane, read-out: solubility of Cefditoren pivoxil in acidic water. As to the method: The solid particles present in the composition of this invention were tested for the measurement of their water-solubility as shown in Test Example given hereinafter.
There was taken as a sample one gram of the yellow-colored powder (the composition of this invention), which was obtained in Example 6 above, and which consisted essentially of the particles as formed substantially from a homogeneous mixture comprising the amorphous substance of Cefditoren pivoxil and hydroxypropylmethyl cellulose, and in which the surface layer of said particles contained additionally hydroxypropyl cellulose. The sample so taken was placed in 250 ml of an acidic water (pH 1.2) containing about […] at 37° C. and stirred at 37° C. for 2 hours. The resulting aqueous solution was passed through a millipore (1 μm) membrane filter to remove the insoluble solid therefrom. The transparent aqueous solution here obtained, which contained Cefditoren pivoxil and the water-soluble cellulose derivatives above-mentioned as dissolved therein, was then measured in respect of the concentration of the Cefditoren pivoxil. […]

For `CO/N=C(\C(=O)NC1C(=O)N2C(C(=O)OCOC(=O)C(C)(C)C)=C(/C=C\c3scnc3C)CS[C@H]12)c1csc(N)n1` (stereo partly shown) [7-[(Z)-2-(2-aminothiazol-4-yl)-2-methoxyiminoacetamido]-3-[(Z)-2-(4-methylthiazol-5-yl)ethenyl]-3-cephem-4-carboxylic acid pivaloyloxymethyl ester], the solubility at 2 h was about 400 µg/mL (≈ 644 µM).

Broadly, the solubility is the dissolved amount per volume that the medium holds.
